Assay type in all cases: cell-based
One assay deals with IL-17A. Put plainly: IL-17 release from differentiated primary human T-cells (IL-17A HTRF assay). Conditions: primary human CD4+ T cells differentiated into Th17 cells, 45-hour incubation, IL-17A in supernatant; read-out: hIL17 IC50. A digest of the protocol: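 Primary human CD4+ T cells (~2×10^5/well) given compound (2–500 or 4–1000 nM, 0.1% DMSO), CD3/CD28-activated and Th17-differentiated (TGF-β, IL-6, IL-23, IL-1β) for 45 h at 37° C. Supernatant IL-17A by HTRF against standard curve, normalized to vehicle; IC50 by variable-slope regression, with parallel CyQuant viability.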

The target in assay [1] is T1, Human RAR-related Orphan Receptor Gamma (RORγ) (Homo sapiens, UniProt P51449).
T1 sequence (P51449 269-508 limits assumed): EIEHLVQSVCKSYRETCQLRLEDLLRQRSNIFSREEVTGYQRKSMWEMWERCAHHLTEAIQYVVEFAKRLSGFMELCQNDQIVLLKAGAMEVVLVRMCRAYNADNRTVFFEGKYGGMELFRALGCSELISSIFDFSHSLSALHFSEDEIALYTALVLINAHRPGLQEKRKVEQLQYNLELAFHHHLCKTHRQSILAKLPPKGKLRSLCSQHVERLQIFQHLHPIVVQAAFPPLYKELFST
Put plainly: RORγ assay (GAL4-RORγ hybrid luciferase reporter, Indigo Biosciences). As to conditions: inverse-agonist activity, GAL4-RORγ reporter cells, 23 hours. A digest of the protocol: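 […]engineered human reporter cell line expressing GAL4-DBD/RORγ-LBD hybrid with GAL4-UAS luciferase; constitutive activity measured as inverse agonism. Cells treated with compound (7.8-2000 nM) for 23 h at 37 °C; luminescence normalized to DMSO, IC50 by variable-slope fit, with parallel viability readout to flag non-specific inhibition.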

Assay [2] relates to Nrf2 transcription factor. Put plainly: AREc32 luciferase reporter assay. Conditions: Homo sapiens; AREc32 cells, 19 hours; concentration required to increase GST ARE luciferase reporter activity by 2-fold; read-out: NRF2 ARE 2-Fold (EC2×). A digest of the protocol:
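AREc32 cells (MCF-7 with firefly luciferase under eight rat GSTA2 ARE copies) treated 19 h with compound (0.4-200 nM or 3.9-2000 nM) in triplicate. Luminescence normalized to DMSO as fold-induction, capped at 50-fold. EC2× = concentration giving 2-fold reporter increase, interpolated from variable-slope fit.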

Molecules are shown by their SMILES.

Consider `CC(C)c1ccc(-c2nc3c(n2Cc2ccccc2F)CC[C@@H]2[C@@H](C)C(=O)C(C#N)=C[C@@]32C)cc1` [T168], for which the results for the 50% inhibitory concentration (IC50) (in the assay with IL-17A; in assay [1]) were 43 nM and 296 nM, respectively. In addition, the EC (2-fold) in assay [2] is 1.29 µM.
`C[C@H]1C(=O)C(C#N)=C[C@@]2(C)c3nc(-c4cccc(-c5ccncc5)c4)n(-c4cccc(F)c4)c3CC[C@H]12` [T146]: the IC50 stood at 70 nM with IL-17A and 106 nM in assay [1]. Besides, the EC (2-fold) in assay [2] is 0.423 µM.
Consider `C[C@H]1C(=O)C(C#N)=C[C@@]2(C)c3c(c(C4CCCCC4)nn3-c3ccc(-c4ccccc4)cc3)CC[C@H]12` [T76], for which the values for the IC50 (with IL-17A; in assay [1]) were 30 nM and 73 nM, respectively. Besides, the EC (2-fold) in assay [2] is 0.465 µM.
The corresponding values for `C[C@H]1C(=O)C(C#N)=C[C@@]2(C)c3c(c(-c4ccccc4)nn3C3CCCCC3)CC[C@H]12` [T2] are 83 nM, 98 nM and 0.66 µM.
Take `C[C@H]1C(=O)C(C#N)=C[C@@]2(C)c3c(c(-c4ccccc4F)nn3-c3nnc(-c4ccccc4)n3C)CC[C@H]12` [T86]: the concentration for half-maximal inhibition (IC50) with IL-17A was determined as 88 nM; in assay [1], 351 nM. For the same compound, the EC (2-fold) in assay [2] came to 1.48 µM.
The corresponding values for `C[C@H]1C(=O)C(C#N)=C[C@@]2(C)c3c(c(-c4ccccc4)nn3-c3ccc(-c4ccccc4CO)cc3)CC[C@H]12` [T43] are 43 nM, 53 nM and 0.174 µM.
The corresponding values for `C[C@H]1C(=O)C(C#N)=C[C@@]2(C)c3c(c(-c4ccncn4)nn3-c3ccc(-c4cccc(CF)c4)cn3)CC[C@H]12` [T61] are 115 nM, 136 nM and 0.251 µM.
Taken in the same sequence, the figures for `CC(C)c1ccc(-c2nc3c(n2Cc2ccncc2)CC[C@@H]2[C@@H](C)C(=O)C(C#N)=C[C@@]32C)cc1` [T171] were 157 nM, 260 nM and 1.01 µM.

The values are drawn from patent publication US11993574B2, “Pyrazole and imidazole compounds for inhibition of IL-17 and RORgamma” (REATA PHARMACEUTICALS, INC., priority 2018, dated 2024).
